Test results: US10736906B2, “Method to enhance tissue regeneration” (CHILDREN'S MEDICAL CENTER CORPORATION, priority 2006, dated 2020)

Key:
liver growth [1] = experiment: chart of prostaglandin derivatives: relative potency to increase liver growth; conditions: zebrafish, in vivo
Source text: Another embodiment of the present invention provides for compositions and methods that modulate vertebrate tissue growth or regeneration via the prostaglandin signaling pathway. For example, prostaglandin E2 enhances vertebrate tissue regeneration. A chemical screen in zebrafish identified the prostaglandin signaling pathway as a potent modifier of liver growth during embryonic development. […] As many molecular pathways controlling embryonic development mediate tissue homeostasis in the adult, the effects of prostaglandin signaling during liver regeneration were examined. […] Fish were revived and allowed to heal in fish water.

liver growth [2] = experiment: liver growth, early experimental evidence; format: in vivo
[3] = test system: cKit+Sca1+ Lineage- (KSL) bone marrow cells; experiment: murine transplantation assay with purified HSCs, CFU-S12; format: in vivo, mice
Method: To assess whether prostaglandin levels regulate wnt activity in HSCs, murine transplantation assays were performed utilizing purified HSCs. FACS-isolated cKit+Sca1+ Lineage—(KSL) bone marrow cells were transplanted into lethally irradiated recipients.

[4] = test system: hematopoietic stem cells (HSCs); experiment: HSC formation in zebrafish embryos (runx1, c-myb expression), with heat-shock inducible wnt modulators; format: in vivo
Method: The functional consequences of the PGE2/wnt interaction in HSC formation during embryonic development were analyzed by examining the expression of the HSC markers runx1 and c-myb. Heat shock induction of a canonical wnt ligand, wnt8, at ten somites led to enhanced HSC formation at 36 hours post fertilization (hpf; 47/54). When wnt8 induction was followed by exposure to indomethacin (10 μM, 16-36 hpf) HSC formation was reduced to or below wild-type levels ( 43/46).
Inducible negative regulators of wnt activity were used in combination with dmPGE2 treatment to functionally localize the interaction between the PG and wnt pathways. Dkk1 antagonizes the wnt pathway at the level of membrane binding and the initiation of the wnt signaling cascade. Dkk induction in hs:dkk1 transgenic embryos inhibited HSC development ( 34/49). Exposure to exogenous dmPGE2 rescued the dkk1-mediated effect on HSC formation ( 28/51, 10 μM, 16-36 hpf). Axin is a central component of the β-catenin destruction complex and thus a negative regulator of the wnt signaling cascade in the cytosolic compartment. […] Similarly, a dominant-negative form of the β-catenin transcriptional co-activator TCF abolished HSC formation ( 60/62), and no rescue was affected via dmPGE2 exposure.
The wnt pathway can actively enhance HSC proliferation through signaling from the HSC niche as well as within HSCs themselves. PGE2 regulates HSC formation at the level of the vascular niche as well as within the HSCs. North et al., 2007. In order to identify transcriptional programs regulated by the wnt signaling pathway, genes involved in HSC development were analyzed by qPCR.
The functional interaction of signaling processes in the zebrafish, down stream from PG, was explored by increasing camp production using forskolin and inhibiting PKA with H89. […] Furthermore, the rescue of dkk effects by dmPGE2 was eliminated by H89.
Heat shock activation/repression of wnt signaling: Embryonic heat-shock experiments were conducted at 38° C. for a duration of 20 minutes unless otherwise noted. Genotype was determined by the presence of GFP fluorescence at three hours post heat-induction, non-fluorescence (wild-type) siblings were used as controls.
(§1) In situ hybridization: Paraformaldehyde (PFA)-fixed embryos were processed for in situ hybridization using standard zebrafish protocols such as those found on the internet at, for example, ZFIN: The Zebrafish Model Organism Database (hosted by the Univ. Oregon, Eugene, Oreg.). The following RNA probes were used to detect alterations in endodermal and liver development: GFP, LFABP, sterol carrier protein, transferrin, foxA3, insulin, trypsin, and IFABP. Changes in expression compared to wild-type controls are reported as the # altered/# scored per genotype; a minimum of three independent experiments were conducted per analysis.

adult zebrafish liver = experiment: liver regeneration and wound healing after 1/3 partial hepatectomy in adult zebrafish; format: in vivo; conditions: for wound healing at the incision site: skin wounds following partial hepatectomy
Source text: Following ⅓ partial hepatectomy, the zebrafish liver regenerates within five days to seven days.
As many molecular pathways controlling embryonic development mediate tissue homeostasis in the adult, the effects of prostaglandin signaling during liver regeneration were examined. […] Fish were revived and allowed to heal in fish water.
To test the requirement of functional prostaglandin signaling during regeneration, fish were exposed to the dual-specific cox inhibitor, indomethacin, from hour 6 to hour 18 following partial hepatectomy.
Liver Resection: Folling administration of tricaine anesthetic, ⅓ partial hepaectomy of the adult zebrafish liver was performed under brightfield imaging on a dissection microscope. An incision was made using microdissection scissors posterior to the heart on the left lateral portion of the abdomen.

wnt activity = wnt activity in TOP:dGFP wnt reporter zebrafish embryos (in situ hybridization and qPCR for GFP); format: in vivo; conditions: for wnt activity in the developing brain, liver and gut: developing zebrafish, TOP:dGFP
Source text: An embodiment of the present invention provides for manipulation of the genetic interaction between PGE2 and wnt/β-catenin signaling, which regulates developmental specification of stem cells and regeneration. Briefly, prostaglandin (PG) E2 is required for the formation and function of hematopoietic stem cells (HSCs) in vivo, yet its mechanism of action in these cells is not completely understood.
The following RNA probes were used to detect alterations in endodermal and liver development: GFP, LFABP, sterol carrier protein, transferrin, foxA3, insulin, trypsin, and IFABP. Changes in expression compared to wild-type controls are reported as the # altered/# scored per genotype; a minimum of three independent experiments were conducted per analysis.

[5] = test system: endodermal and hepatic progenitor cells; experiment: endodermal progenitors (foxA3) and liver size (lfabp) in zebrafish embryos, in situ hybridization; format: in vivo
Source text: To determine whether the interaction of PGE2 and wnt/β-catenin signaling is a conserved regulator of stem and progenitor cell populations in other tissues, endodermal and hepatic progenitor cells were examined during zebrafish development. […] ( 51/56), as detected by expression of liver fatty acid binding protein (lfabp). […] This finding is supported by the detection of various components of PGE2 signaling in foxA3 positive cells.
The APC mutant zebrafish to model constitutive activation of the wnt signaling pathway, was used to characterize the effects of the wnt/PG interaction in foxA3+ endodermal progenitors at 48 hpf. APC+/− embryos have enhanced foxA3 expression and an increased liver bud ( 88/93) as well as increased liver size ( 68/75) compared to wild-type siblings. […] Both cyclinD1 and cmyc were co-regulated by wnt and prostaglandin during development which may indicate that PGE2 exerts its effects on stem cells through enhanced cell cycling and proliferation.
as §1

[6] = test system: stem and progenitor cell population; experiment: hematopoietic recovery following irradiation in the adult zebrafish (kidney marrow); format: in vivo; conditions: zebrafish
Method: It has been hypothesized that wnt activation regulates HSC self-renewal and repopulation. Wnt activation is also thought to be involved in carcinogenesis, however, making the concept of direct enhancement of wnt signaling problematic. Whether regulation of wnt activity by prostaglandin can effectively modulate HSC homeostasis in the adult, was determined by observing hematopoietic recovery following irradiation in the zebrafish. […] APCMin/+ mice have elevated β-catenin levels due to loss of APC function in the destruction complex.

CCCCC[C@H](O)/C=C/[C@H]1[C@H](O)CC(=O)[C@@H]1C/C=C/CCCC(=O)O (relative stereo) [5-trans PGE2]
toxicity noted in liver growth chart (liver growth [1]): toxic

C[C@]12CC[C@@H]3c4ccc(O)cc4CC[C@H]3[C@@H]1CC[C@@H]2O [3-estradiol]
effect on liver growth (liver growth [2]): inhibited

CC1=C(/C=C/C(C)=C/C=C/C(C)=C/C(=O)O)C(C)(C)CCC1 [All-trans retinoic acid]
effect on liver growth (liver growth [2]): enhanced

O=C1Nc2cc(Br)ccc2/C1=C1/Nc2ccccc2/C1=N\O [BIO]
CFU-S12 increase ([3]; BIO 0.05 mg/kg, p=0.03): 2 fold | early spleen colony formation following bone marrow transplantation ([3]; FIG. 11 legend): enhances early spleen colony formation

CC1=C(/C=C/C(C)=C/C=C/C(C)=C/C=C/C=C(C)/C=C/C=C(C)/C=C/C2=C(C)CCCC2(C)C)C(C)(C)CCC1 [Beta-Carotene]
effect on liver growth (liver growth [2]): inhibited

O=S(=O)(NCCNC/C=C/c1ccc(Br)cc1)c1cccc2cnccc12 [H89]
effect on increased HSC formation induced by dmPGE2 ([4]; PKA inhibition): reduced the increased HSC formation | effect on the rescue of dkk effects by dmPGE2 ([4]; PKA inhibition): eliminated

CCCCC[C@H](O)/C=C/[C@H]1[C@H](O)CC(=O)[C@@H]1C/C=C\CCCC(=O)O [PGE2, Prostaglandin E2]
wound healing at the incision site (adult zebrafish liver): heal faster and to a greater extent | wnt activity in the developing brain, liver and gut (wnt activity): increased wnt activity

CC1=C(/C=C/C(C)=C/C=C/C(C)=C/CO)C(C)(C)CCC1 [Retinol]
effect on liver growth (liver growth [2]): enhanced

CCCCC(C)(C)[C@H](O)/C=C/[C@H]1[C@H](O)CC(=O)[C@@H]1C/C=C\CCCC(=O)O [dmPGE2, dimethyl-prostaglandin E2]
liver vascularity (adult zebrafish liver; compared to untreated fish): increases in liver vascularity | liver regrowth compared to controls (adult zebrafish liver; exposure following resection (indomethacin hour 6 to 18; day 1 and day 3)): enhanced liver regrowth | complete regeneration of the liver (adult zebrafish liver; indomethacin: by day 5 post-resection): faster complete regeneration | wound healing at the incision site (adult zebrafish liver): more rapid wound healing | enhanced endodermal progenitors (# altered/# scored) ([5]; APC+/− embryos): 47/54 | enhanced liver size (# altered/# scored) ([5]; APC+/− embryos): 75/81 | rescue of liver growth inhibited by morpholino knock-down of cox1 or cox2 ([5]; exogenous dmPGE2): rescued fully | expanded foxA3 population with increased liver anlage (# altered/# scored) ([5]; wild-type embryos): 75/83 | increased liver size (# altered/# scored) ([5]; wild-type embryos): 88/92 | liver size / liver development compared to controls ([5]; zebrafish embryos, by 72 hours post-fertilization): enhanced liver development | rescue of axin-mediated inhibition of HSC formation ([4]; axin induced at ten somites): could not be overcome | rescue of dominant-negative TCF-mediated loss of HSC formation ([4]; dnTCF induction): no rescue | rescue of dkk1-mediated effect on HSC formation (# altered/# scored) ([4]; hs:dkk1 embryos, 10 μM, 16-36 hpf): 28/51 | effects of wnt8/dkk1 induction on runx1, cmyb, flk1, ephB2 expression (qPCR) ([4]; indomethacin added to wnt8, dmPGE2 added to dkk1): could be modified | kidney marrow repopulation following injury [6]: enhance kidney marrow repopulation | wnt-active cells in the aorta-gonad mesonephros (AGM) (wnt activity; 10 μM, vs. 3±1.8 cells): 12±3.4 cells | wnt activity in the developing brain, liver and gut (wnt activity): enhance wnt signaling | induction of wnt activity, qPCR for GFP (wnt activity; whole embryo extracts): 2 fold

BMS189453
effect on liver growth (liver growth [2]): inhibited

Vitamin D
effect on liver growth (liver growth [2]): enhanced
